From article PMC5349910, “Discovery of BPR1K871, a quinazoline based, multi-kinase inhibitor for the treatment of AML and solid tumors: Rational design, synthesis, in vitro and in vivo evaluation” (Oncotarget, 2016)

Legend:
[1] = target: T1, AURKA (Homo sapiens, UniProt O14965); design: method as in PMID 20550212, PMID 23172777, PMID 24665000; conditions: previously reported leads 1, 2, 3; cited from earlier work
T1 construct: recombinant GST-AURKA (residues Ser123-Ser401) containing the kinase domain; GST (N); made in house; host or cells: Sf9 insect cells
T1 sequence (O14965 123-401): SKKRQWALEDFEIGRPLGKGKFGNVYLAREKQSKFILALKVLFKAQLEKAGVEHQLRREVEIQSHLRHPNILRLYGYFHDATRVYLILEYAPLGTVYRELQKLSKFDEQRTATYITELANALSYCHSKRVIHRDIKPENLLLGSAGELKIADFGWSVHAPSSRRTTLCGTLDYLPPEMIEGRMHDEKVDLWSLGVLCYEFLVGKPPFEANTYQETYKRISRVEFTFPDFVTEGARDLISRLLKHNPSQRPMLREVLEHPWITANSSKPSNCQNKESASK

[2] = target: T2, FLT3 (Homo sapiens, UniProt P36888); design: method as in PMID 20550212, PMID 23172777, PMID 24665000; conditions: previously reported leads 1, 2, 3; cited from earlier work
T2 construct: FLT3 kinase catalytic domain (residues Tyr567-Ser993); made in house; host or cells: Sf9 insect cells (baculovirus, pBac-PAK8-GST-FLT3-KD)
T2 sequence (P36888 567-993): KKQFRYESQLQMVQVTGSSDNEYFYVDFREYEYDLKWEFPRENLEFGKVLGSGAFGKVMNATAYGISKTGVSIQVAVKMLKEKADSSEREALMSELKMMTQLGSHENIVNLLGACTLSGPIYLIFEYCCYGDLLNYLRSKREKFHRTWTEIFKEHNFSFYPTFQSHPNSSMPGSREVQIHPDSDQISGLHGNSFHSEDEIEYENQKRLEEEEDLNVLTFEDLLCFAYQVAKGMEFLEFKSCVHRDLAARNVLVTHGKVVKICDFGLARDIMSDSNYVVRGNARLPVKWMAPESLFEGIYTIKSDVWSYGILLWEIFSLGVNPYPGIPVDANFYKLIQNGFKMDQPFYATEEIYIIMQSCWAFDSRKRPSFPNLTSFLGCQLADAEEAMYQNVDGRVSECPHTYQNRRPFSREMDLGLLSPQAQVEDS

[3] = system: MOLM-13 cells; experiment: MTS cell viability assay, MOLM-13; type: cell-based, human; conditions: Homo sapiens, MOLM-13, 72 h, MTS, 72 h; AML-FLT3-ITD (heterozygous); supplement values ± SEM; read-out: MOLM-13 EC50
Procedure: (§1) The MTS cell viability assay was conducted as previously described. The MOLM-13 human leukemia cell line was obtained from the German Resource Centre for Biological Material (DSMZ, Braunschweig, Germany); the MV4-11 cell line was purchased from the American Type Culture Collection (ATCC, Manassas, VA, USA). […] To determine cell viability after drug treatment, assay for MOLM-13 and MV4-11 was performed by seeding 10000 cells per well in a 96-well culture plate. […] After 16 h, cells were then treated with vehicle or various concentrations of compound in medium for 72 h. Viable cells were quantified using the MTS method (Promega, Madison, WI, USA) according to the manufacturer's recommended protocol. Results were determined by measuring the absorbance at 490 nm using a plate reader (Victor2; PerkinElmer, Shelton, CT, USA).

[4] = system: MV4-11 cells; experiment: MTS cell viability assay, MV4-11; type: cell-based, human; conditions: Homo sapiens, MV4-11, 72 h, MTS, 72 h; AML-FLT3-ITD (homozygous); supplement values ± SEM; read-out: MV4-11 EC50
Procedure: as §1

[5] = system: RS4-11 cells; experiment: Anti-proliferative activity, RS4-11; type: cell-based; conditions: Homo sapiens, RS4-11; ALL-wt-FLT3 (homozygous); supplement values ± SEM; read-out: RS4-11 EC50
[6] = system: U937 cells; experiment: Anti-proliferative activity, U937; type: cell-based; conditions: Homo sapiens, U-937; AML-FLT3-negative; supplement values ± SEM; read-out: U937 EC50
[7] = system: K562 cells; experiment: Anti-proliferative activity, K562; type: cell-based; conditions: Homo sapiens, K562; CML-Bcr-Abl FLT3-negative; supplement values ± SEM; read-out: K562 EC50
[8] = system: HCC827 cells; experiment: Anti-proliferative activity, HCC827; type: cell-based; conditions: Homo sapiens, HCC827; NSCLC-EGFR L858R; supplement values ± SEM; read-out: HCC827 EC50
[9] = system: H1975 cells; experiment: Anti-proliferative activity, H1975; type: cell-based; conditions: Homo sapiens, NCI-H1975; NSCLC-EGFR LR/TM; supplement values ± SEM; read-out: H1975 EC50
[10] = system: H2228 cells; experiment: Anti-proliferative activity, H2228; type: cell-based; conditions: Homo sapiens, NCI-H2228; NSCLC-ALK; supplement values ± SEM; read-out: H2228 EC50
[11] = system: CL-97 cells; experiment: Anti-proliferative activity, CL-97; type: cell-based, human; conditions: CL97; Human Lung Cancer; supplement values ± SEM; read-out: CL-97 EC50
[12] = system: HCT-116 cells; experiment: Anti-proliferative activity, HCT-116; type: cell-based, human; conditions: HCT-116; Human Colon Cancer; supplement values ± SEM; read-out: HCT-116 EC50
[13] = system: Mia-PaCa2 cells; experiment: Anti-proliferative activity, Mia-PaCa2; type: cell-based, human; conditions: Homo sapiens, MIA PaCa-2, Human Pancreatic Cancer; supplement values ± SEM
[14] = system: Colo 205 cells; experiment: Anti-proliferative activity, Colo 205; type: cell-based; conditions: Homo sapiens, COLO 205, Human Colon Cancer

SMILES	IC50 [1] [nM]	IC50 [2] [nM]	EC50 [3] [nM]	EC50 [4] [nM]	EC50 [5] [nM]	EC50 [6] [nM]	EC50 [7] [nM]	EC50 [8] [nM]	EC50 [9] [nM]	EC50 [10] [nM]	EC50 [11] [nM]	EC50 [12] [nM]	EC50 [13] [nM]	EC50 [14] [nM]
O=C(Nc1cccc(Cl)c1)Nc1ncc(CCNc2ncnc3oc(-c4ccccc4)c(-c4ccccc4)c23)s1 [Compound 3]	43	322	–	–	–	–	–	–	–	–	–	–	–	–
Cc1ccc(F)c(NC(=O)Nc2ccc(-c3cccc4[nH]nc(N)c34)cc2)c1 [Linifanib]	–	–	38	82	9200	> 18000	> 20000	6180	8850	8780	> 20000	8070	16400	–
Cc1cc(Nc2cc(N3CCN(C)CC3)nc(Sc3ccc(NC(=O)C4CC4)cc3)n2)[nH]n1 [VX-680, reference compound]	–	–	69	71	–	–	–	–	–	–	–	97	–	86
